Structures can show the parent of a compound that is named as a salt. Where two headings read alike, the source gives them in different places.
How the values were obtained:
[1] = system: Ras farnesylation in H-ras Me 12/+ cells; assay: Gel shift assay: inhibition of Ras farnesylation in H-ras Me 12/+ cells; assay type: cell-based; conditions: 18-hour incubation, read-out: Inhibition of Ras Farnesylation (Minimum Effective Dose)
Procedure: (§1) Twenty-four hours after planting 2×10^6 ras-transformed cells per treatment condition, the farnesylation inhibitor is added at varying concentrations. Following an 18-hour incubation period, cells are lysed in phosphate-buffered saline containing 1% Triton X-100, 0.5% sodium deoxycholate, and 0.1% SDS, pH 7.4 in the presence of several protease inhibitors (PMSF, antipain, leupeptin, pepstatin A, and aprotinin all at 1 μg/mL). Ras protein is immunoprecipitated from the supernatants by the addition of 3 μg v-H-ras Ab-2 (Y13-259 antibody from Oncogene Science). After overnight immunoprecipitation, 30 μL of a 50% protein G-Sepharose slurry (Pharmacia) is added followed by 45-minute incubation. Pellets are resuspended in 2× tris-glycine loading buffer (Novex) containing 5% B-mercaptoethanol and then denatured by 5 minutes boiling prior to electrophoresis on 14% Tris-glycine SDS gels. Using Western transfer techniques, proteins are transferred to nitrocellulose membranes followed by blocking in blocking buffer. Upon overnight incubation with primary antibody (pan-ras Ab-2 from Oncogene Science), an antimouse HRP conjugate secondary antibody (Amersham) is employed for detection of the ras protein. Blots are developed using ECL techniques (Amersham).
(§2) The data in Table 1 show farnesyl protein transferase inhibitory activity, and activity in the gel shift assay against ras protein of selected compounds of Formula I.

[2] = molecular target: T1, rat brain farnesyl protein transferase (Rattus norvegicus, UniProt Q02293+Q04631); assay: Protein:farnesyltransferase (PFT/FPT) inhibitory activity assay; assay type: biochemical
T1 construct: 40-fold purified rat brain farnesyl protein transferase; from tissue; host or cells: rat brain

[3] = system: Ras farnesylation in H-ras-NIH3T3 cells; assay: Gel shift assay: inhibition of Ras farnesylation in H-ras-NIH3T3 cells; assay type: cell-based; conditions: 18-hour incubation, read-out: Inhibition of Ras Farnesylation (Minimum Effective Dose)
Procedure: as §1, §2

[4] = Hepes (without 5 mM phosphate), read-out: Farnesyl Protein Transferase Inhibition, Hepes, IC50
[5] = Hepes/5 mM PO4^-3, pH 7.4, read-out: Farnesyl Protein Transferase Inhibition, Hepes/5 mM PO4^-3, IC50

SMILES	IC50 [2, 4]	IC50 [2, 5]	minimal effective concentration [1]	minimal effective concentration [3]
N#CCCOC(=O)[C@H](Cc1c[nH]cn1)NC(=O)C(CC1CCCC2CCCCC21)CC1CCCC2CCCCC21 (stereo partly drawn) [Example 45, (S)-2-[3-(Decahydro-naphthalen-1-yl)-2-(decahydro-naphthalen-1-ylmethyl)-propionylamino]-3-(1H-imidazol-4-yl)-propionic acid, 2-cyano-ethyl ester]	490 nM	320 nM	–	–
N#CCCOC(=O)[C@H](Cc1c[nH]cn1)NC(=O)C(Cc1cccc2c1CCCC2)Cc1cccc2c1CCCC2 [Example 49, (S)-3-(1H-Imidazol-4-yl)-2-[3-(5,6,7,8-tetrahydro-naphthalen-1-yl)-2-(5,6,7,8-tetrahydro-naphthalen-1-ylmethyl)-propionylamino]-propionic acid, 2-cyano-ethyl ester]	290 nM	370 nM	–	–
O=C(N[C@@H](Cc1c[nH]cn1)C(=O)NCCc1ccccc1)C(Cc1cccc2ccccc12)Cc1cccc2ccccc12 [Example 50]	4800 nM	6000 nM	–	–
COC(=O)[C@H](Cc1c[nH]cn1)N(C)C(=O)C(Cc1cccc2ccccc12)Cc1cccc2ccccc12 [Example 51, (S)-3-(1H-Imidazol-4-yl-2-[methyl-(3-naphthalen-1-yl-2-naphthalen-1-ylmethyl-propionyl)-amino]-propionic acid, methyl ester, trifluoroacetate]	2000 nM	2200 nM	–	5 µM
O=C(N[C@H](CO)Cc1c[nH]cn1)C(Cc1cccc2ccccc12)Cc1cccc2ccccc12 [Example 52, (S)-N-[1-Hydroxymethyl-2-(1H-imidazol-4-yl)-ethyl]-3-naphthalen-1-yl-2-naphthalen-1-ylmethyl-propionamide]	3000 nM	3400 nM	–	25 µM
COC(=O)[C@H](Cc1c[nH]cn1)NCC(Cc1cccc2ccccc12)Cc1cccc2ccccc12 [Example 56, (S)-3-(1H-Imidazol-4-yl)-2-(3-naphthalen-1-yl-2-naphthalen-1-ylmethyl-propylamino)-propionic acid methyl ester]	370 nM	360 nM	–	–
COCn1cncc1C[C@H](NC(=O)C(Cc1cccc2ccccc12)Cc1cccc2ccccc12)C(=O)OC [Example 60, (S)-3-(3-Methoxymethyl-3H-imidazol-4-yl)-2-(3-naphthalen-1-yl-2-naphthalen-1-ylmethyl-propionylamino)-propionic acid, methyl ester]	930 nM	1000 nM	–	–
OC[C@H](Cc1c[nH]cn1)NCC(Cc1cccc2ccccc12)Cc1cccc2ccccc12 [Example 62, (S)-3-(1H-Imidazol-4-yl)-2-(3-naphthalen-1-yl-2-naphthalen-1-ylmethyl-propylamino)-propan-1-ol]	550 nM	500 nM	–	–
CNC(=O)[C@H](Cc1c[nH]cn1)NCC(Cc1cccc2ccccc12)Cc1cccc2ccccc12 [Example 63, (S)-3-(1H-Imidazol-4-yl)-N-methyl-2-(3-naphthalen-1-yl-2-naphthalen-1-ylmethyl-propylamino)-propionamide]	200 nM	240 nM	–	–
CNC(=O)[C@H](Cc1cncn1C)NC(=O)C(Cc1cccc2ccccc12)Cc1cccc2ccccc12 [Example 64, (S)-N-[1-Methylcarbamoyl-2-(3-methyl-3H-imidazol-4-yl)-ethyl]-3-naphthalen-1-yl-2-naphthalen-1-ylmethyl-propionamide]	610 nM	460 nM	–	–
COC(=O)[C@H](Cc1c[nH]cn1)NC(=O)C(Cc1ccccc1)Cc1cccc2ccccc12 (stereo partly drawn) [Example 65, (S)-2-(2-Benzyl-3-naphthalen-1-yl-propionylamino)-3-(1H-imidazol-4-yl)-propionic acid, methyl ester]	1600 nM	2900 nM	–	25 µM

Second part, led by results:

IC50 [2, 4]	IC50 [2, 5]	SMILES	minimal effective concentration [1]	minimal effective concentration [3]
130 nM	130 nM	CCOC(=O)[C@H](Cc1c[nH]cn1)NC(=O)C(Cc1cccc2ccccc12)Cc1cccc2ccccc12 [Example 5, (S)-3-(1H-Imidazol-4-yl)-2-(3-naphthalen-1-yl-2-naphthalen-1-ylmethyl-propionylamino)-propionic acid, ethyl ester]	2.5 µM	–
110 nM	100 nM	CCCOC(=O)[C@H](Cc1c[nH]cn1)NC(=O)C(Cc1cccc2ccccc12)Cc1cccc2ccccc12 [Example 7, (S)-3-(1H-Imidazol-4-yl)-2-(3-naphthalen-1-yl-2-naphthalen-1-ylmethyl-propionylamino)-propionic acid, propyl ester]	5 µM	–
400 nM	200 nM	C=CCOC(=O)[C@H](Cc1c[nH]cn1)NC(=O)C(Cc1cccc2ccccc12)Cc1cccc2ccccc12 [Example 15, (S)-3-(1H-Imidazol-4-yl)-2-(3-naphthalen-1-yl-2-naphthalen-1-ylmethyl-propionylamino)-propionic acid, allyl ester]	–	25 µM
80 nM	70 nM	N#CCCOC(=O)[C@H](Cc1c[nH]cn1)NC(=O)C(Cc1cccc2ccccc12)Cc1cccc2ccccc12 [Example 17, (S)-3-(1H-Imidazol-4-yl)-2-(3-naphthalen-1-yl-2-naphthalen-1-ylmethyl-propionylamino)-propionic acid, 2-cyanoethyl ester]	–	10 µM
970 nM	710 nM	N#CCCNC(=O)[C@H](Cc1c[nH]cn1)NC(=O)C(Cc1cccc2ccccc12)Cc1cccc2ccccc12 [Example 41, (S)-N-[1-(2-Cyano-ethylcarbamoyl)-2-(1H-imidazol-4-yl)-ethyl]-3-naphthalen-1-yl-2-naphthalen-1-ylmethyl-propionamide]	–	5 µM
4900 nM	5600 nM	CCCNC(=O)[C@H](Cc1c[nH]cn1)NC(=O)C(Cc1cccc2ccccc12)Cc1cccc2ccccc12 [Example 46]	–	–
1100 nM	1400 nM	O=C(N[C@@H](Cc1c[nH]cn1)C(=O)OCCn1ccnc1)C(Cc1cccc2ccccc12)Cc1cccc2ccccc12 [Example 47, (S)-3-[1H-Imidazol-4-yl)-2-(3-naphthalen-1-yl-2-naphthalen-1-ylmethyl-propionylamino)-propionic acid, 2-imidazol-1-yl-ethyl ester]	–	–
1200 nM	1300 nM	C=CCCOC(=O)[C@H](Cc1c[nH]cn1)NC(=O)C(Cc1cccc2ccccc12)Cc1cccc2ccccc12 [Example 48, (S)-3-(1H-Imidazol-4-yl)-2-(3-naphthalen-1-yl-2-naphthalen-1-ylmethyl-propionylamino)-propionic acid, but-3-enyl ester]	–	–
70 nM	60 nM	O=C(N[C@@H](Cc1c[nH]cn1)C(=O)OCCc1ccccc1)C(Cc1cccc2ccccc12)Cc1cccc2ccccc12 [Example 53, (S)-3-(1H-Imidazol-4-yl)-2-(3-naphthalen-1-yl-2-naphthalen-1-ylmethyl-propionylamino)-propionic acid, phenethyl ester]	–	25 µM
440 nM	370 nM	N#CCCCOC(=O)[C@H](Cc1c[nH]cn1)NC(=O)C(Cc1cccc2ccccc12)Cc1cccc2ccccc12 [Example 54, (S)-3-(1H-Imidazol-4-yl)-2-(3-naphthalen-1-yl-2-naphthalen-1-ylmethyl-propionyiamino)-propionic acid, 3-cyano-propyl ester]	–	–
5300 nM	4300 nM	CC(C)=CCOC(=O)[C@H](Cc1c[nH]cn1)NC(=O)C(Cc1cccc2ccccc12)Cc1cccc2ccccc12 [Example 55, (S)-3-(1H-Imidazol-4-yl)-2-(3-naphthalen-1-yl-2-naphthalen-1-ylmethyl-propionylamino)-propionic acid 3-methyl-but-2-enyl ester]	–	–
5500 nM	4100 nM	COC(=O)COC(=O)[C@H](Cc1c[nH]cn1)NC(=O)C(Cc1cccc2ccccc12)Cc1cccc2ccccc12 [Example 57, (S)-3-(1H-Imidazol-4-yl)-2-(3-naphthalen-1-yl-2-naphthalen-1-ylmethyl-propionylamino)-propionic acid, methoxycarbonylmethyl ester]	–	–
400 nM	510 nM	N#CCOC(=O)[C@H](Cc1c[nH]cn1)NC(=O)C(Cc1cccc2ccccc12)Cc1cccc2ccccc12 [Example 58, (S )-3-(1H-Imidazol-4-yl)-2-(3-naphthalen-1-yl-2-naphthalen-1-ylmethyl-propionylamino)-propionic acid, cyanomethyl ester]	–	–
1300 nM	1000 nM	O=C(N[C@@H](Cc1c[nH]cn1)C(=O)OCCSSCCO)C(Cc1cccc2ccccc12)Cc1cccc2ccccc12 [Example 59, (S)-3-(1H-Imidazol-4-yl)-2-(3-naphthalen-1-yl-2-naphthalen-1-ylmethyl-propionylamino)-propionic acid, 2-(2-hydroxy-ethyldisulfanyl)-ethyl ester]	–	–
